In PubChem BioAssay AID256 (DTP/NCI, 2004):
Several values for one entry are separate records, joined by “and”; a condition that tells them apart may be missing. Equal entries are not always repeated. Toxic doses and inconclusive results are not listed. The calls were made as follows: active = survival T/C of 150% or more; inactive = T/C below 125% in these data.

System: CD2F1 mice, L1210 leukemia ip, survival T/C
Assay: NCI In Vivo Anticancer Drug Screen. Data for tumor model L1210 Leukemia (intraperitoneal) in CD2F1 (CDF1) mice
Details: higher = longer survival
Procedure, shortened: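 Tumor-bearing mice (transplanted tumor) were split into treated and vehicle control groups, and the measured endpoint of each treated group was divided by that of its vehicle controls.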

[1] = endpoint: mean survival time, dose: 100.0 mg/kg/injection, schedule: Q04DX003 (ip), vehicle: saline with Tween-80
[2] = endpoint: mean survival time, dose: 200.0 mg/kg/injection, schedule: Q04DX003 (ip), vehicle: saline with Tween-80
[3] = endpoint: mean survival time, dose: 400.0 mg/kg/injection, schedule: Q04DX003 (ip), vehicle: saline with Tween-80
[4] = endpoint: mean survival time, dose: 25.0 mg/kg/injection, schedule: Q01DX009 (ip), vehicle: saline with Tween-80
[5] = endpoint: mean survival time, dose: 50.0 mg/kg/injection, schedule: Q01DX009 (ip), vehicle: saline with Tween-80
[6] = endpoint: mean survival time, dose: 100.0 mg/kg/injection, schedule: Q01DX009 (ip), vehicle: saline with Tween-80

Measured: T/C

COC(=O)c1ccccc1NC1OC(CO)C(O)C1O (stereo not drawn)
inactive: endpoint: mean survival time, dose: 100.0 mg/kg/injection, schedule: Q01DX001 (ip), vehicle: saline 101 % of control | endpoint: mean survival time, dose: 200.0 mg/kg/injection, schedule: Q01DX001 (ip), vehicle: saline 92 % of control | endpoint: mean survival time, dose: 400.0 mg/kg/injection, schedule: Q01DX001 (ip), vehicle: saline 91 % of control

COc1ccc(C(CO)=C(c2ccc(OC)cc2)c2ccc(OC)cc2)cc1
inactive: [1] 103 % of control | [2] 94 % of control | [3] 95 % of control

Clc1ccc(N=Nc2ccc(Cl)cc2)cc1
inactive: endpoint: mean survival time, dose: 25.0 mg/kg/injection, schedule: Q04DX003 (ip), vehicle: saline with Tween-80 95 % of control | endpoint: mean survival time, dose: 50.0 mg/kg/injection, schedule: Q04DX003 (ip), vehicle: saline with Tween-80 95 % of control | [1] 92 % of control

COc1ccc(N(C)c2ccc(C(=C3C=CC(=[N+](C)CCO)C=C3)c3ccc(N(C)CCO)cc3)cc2)cc1
inactive: endpoint: mean survival time, dose: 6.25 mg/kg/injection, schedule: Q04DX002 (ip), vehicle: saline with Tween-80 108 % of control | endpoint: mean survival time, dose: 25.0 mg/kg/injection, schedule: Q04DX002 (ip), vehicle: saline with Tween-80 108 % of control

O=C(Nc1ccc(Cl)c(Cl)c1)C(Cl)Cl
inactive: endpoint: mean survival time, dose: 12.5 mg/kg/injection, schedule: Q01DX009 (ip), vehicle: saline with Tween-80 95 % of control | [4] 101 % of control | [5] 107 % of control

Nc1ccc(CCCCc2nc(N)nc(N)c2-c2ccc(Cl)c(Cl)c2)cc1
inactive: [1] 98 % of control | [2] 100 % of control | [3] 113 % of control

CCOc1ccc(Br)cc1/C=N/NS(=O)(=O)c1ccc(C)cc1
inactive: [4] 111 % of control | [5] 114 % of control | [6] 113 % of control

Cn1c(N)nc2nc[nH]c2c1=S
inactive: endpoint: mean survival time, dose: 16.0 mg/kg/injection, schedule: Q01DX008 (iv), vehicle: saline 100 % of control | endpoint: mean survival time, dose: 32.0 mg/kg/injection, schedule: Q01DX008 (iv), vehicle: saline 98 % of control | endpoint: mean survival time, dose: 64.0 mg/kg/injection, schedule: Q01DX008 (iv), vehicle: saline 105 % of control

O=C1CCC(=O)N1C1c2ccccc2Oc2ccccc21
inactive: endpoint: mean survival time, dose: 100.0 mg/kg/injection, schedule: Q01DX009 (ip), vehicle: saline 96 % of control | endpoint: mean survival time, dose: 200.0 mg/kg/injection, schedule: Q01DX009 (ip), vehicle: saline 91 % of control | endpoint: mean survival time, dose: 400.0 mg/kg/injection, schedule: Q01DX009 (ip), vehicle: saline 92 % of control

CCOC1(c2ccccc2)c2ccccc2C(C)(C)c2ccccc21
inactive: [1] 92 % of control | [3] 92 % of control

CCOC(=O)C1(C(=O)OCC)CCC(O)N1C(=O)c1ccccc1[N+](=O)[O-] (stereo not drawn)
inactive: endpoint: mean survival time, dose: 100.0 mg/kg/injection, schedule: Q01DX001 (ip), vehicle: Klucel (hydroxypropylcellulose) (HPC) 100 % of control | endpoint: mean survival time, dose: 200.0 mg/kg/injection, schedule: Q01DX001 (ip), vehicle: Klucel (hydroxypropylcellulose) (HPC) 96 % of control | endpoint: mean survival time, dose: 400.0 mg/kg/injection, schedule: Q01DX001 (ip), vehicle: Klucel (hydroxypropylcellulose) (HPC) 92 % of control

CNC(=O)Oc1cccc(NC(=O)OCc2ccccc2)c1
inactive: [1] 99 % of control | [2] 96 % of control | [3] 92 % of control

O=c1c2cc[nH]c2ncn1C1OC(CO)C(O)C1O (stereo not drawn)
inactive: endpoint: mean survival time, dose: 12.5 mg/kg/injection, schedule: Q01DX005 (ip), vehicle: saline 96 % of control | endpoint: mean survival time, dose: 25.0 mg/kg/injection, schedule: Q01DX005 (ip), vehicle: saline 107 % of control

CC1=C/C(=N\Nc2ccccc2)C(C(O)(C(F)(F)Cl)C(F)(F)Cl)C(C)(C)C1 (stereo not drawn)
inactive: [1] 96 % of control | [2] 94 % of control | [3] 93 % of control

ClCCN(CCCl)c1ccc(CNCCCNCc2ccc(N(CCCl)CCCl)cc2)cc1
inactive: endpoint: mean survival time, dose: 1.25 mg/kg/injection, schedule: Q01DX009 (ip), vehicle: saline sonified 118 % of control | endpoint: mean survival time, dose: 2.5 mg/kg/injection, schedule: Q01DX009 (ip), vehicle: saline sonified 118 % of control | endpoint: mean survival time, dose: 3.3 mg/kg/injection, schedule: Q01DX009 (ip), vehicle: saline sonified 117 % of control | endpoint: mean survival time, dose: 5.0 mg/kg/injection, schedule: Q01DX009 (ip), vehicle: saline sonified 117 % of control | endpoint: mean survival time, dose: 7.5 mg/kg/injection, schedule: Q01DX009 (ip), vehicle: saline sonified 121 % of control | endpoint: mean survival time, dose: 10.0 mg/kg/injection, schedule: Q04DX003 (ip), vehicle: saline with Tween-80 120 % of control | endpoint: mean survival time, dose: 20.0 mg/kg/injection, schedule: Q04DX003 (ip), vehicle: saline with Tween-80 121 % of control | endpoint: mean survival time, dose: 40.0 mg/kg/injection, schedule: Q04DX003 (ip), vehicle: saline with Tween-80 120 % of control

C[C@]12CC[C@@H]3c4ccc(OC(=O)Cc5ccc(N(CCCl)CCCl)cc5)cc4CC[C@H]3[C@@H]1CC[C@@H]2OC(=O)Cc1ccc(N(CCCl)CCCl)cc1
inactive: endpoint: median survival time, dose: 25.0 mg/kg/injection, schedule: Q01DX009 (ip), vehicle: Klucel (hydroxypropylcellulose) (HPC) 89 % of control | endpoint: median survival time, dose: 50.0 mg/kg/injection, schedule: Q01DX009 (ip), vehicle: Klucel (hydroxypropylcellulose) (HPC) 92 % of control | endpoint: median survival time, dose: 100.0 mg/kg/injection, schedule: Q01DX009 (ip), vehicle: Klucel (hydroxypropylcellulose) (HPC) 94 % of control | endpoint: median survival time, dose: 200.0 mg/kg/injection, schedule: Q01DX009 (ip), vehicle: Klucel (hydroxypropylcellulose) (HPC) 92 % of control | endpoint: median survival time, dose: 400.0 mg/kg/injection, schedule: Q01DX009 (ip), vehicle: Klucel (hydroxypropylcellulose) (HPC) 101 % of control

O=S(=O)(O)C(O)c1cccc2ccccc12 (stereo not drawn)
inactive: [1] 91 % of control | [2] 91 % of control | [3] 94 % of control

CCOC(=O)C(C)(C)C(OP(=O)(OCC)OCC)=C(C)C
inactive: endpoint: mean survival time, dose: 75.0 mg/kg/injection, schedule: Q01DX001 (ip), vehicle: saline 103 % of control | endpoint: mean survival time, dose: 150.0 mg/kg/injection, schedule: Q01DX001 (ip), vehicle: saline 97 % of control | endpoint: mean survival time, dose: 300.0 mg/kg/injection, schedule: Q01DX001 (ip), vehicle: saline 100 % of control

CCOC(=O)N(CCCl)C(=O)C(C)C
inactive: endpoint: mean survival time, dose: 100.0 mg/kg/injection, schedule: Q04DX003 (ip), vehicle: saline 95 % of control | endpoint: mean survival time, dose: 200.0 mg/kg/injection, schedule: Q04DX003 (ip), vehicle: saline 92 % of control | endpoint: mean survival time, dose: 400.0 mg/kg/injection, schedule: Q04DX003 (ip), vehicle: saline 97 % of control

O=C(CSCCN1CCCCC1)N1c2ccccc2Sc2ccccc21
inactive: endpoint: mean survival time, dose: 12.5 mg/kg/injection, schedule: Q04DX003 (ip), vehicle: saline 104 % of control | endpoint: mean survival time, dose: 25.0 mg/kg/injection, schedule: Q04DX003 (ip), vehicle: saline 101 % of control | endpoint: mean survival time, dose: 50.0 mg/kg/injection, schedule: Q04DX003 (ip), vehicle: saline 101 % of control

CCNC(=O)OCC1C2=C(C(=O)C(C)=C(N)C2=O)N2CC3C(N3C)C12OC (stereo not drawn)
inactive: endpoint: mean survival time, dose: 133.0 mg/kg/injection, schedule: Q01DX001 (ip), vehicle: carboxymethylcellulose (CMC) 118 % of control | endpoint: mean survival time, dose: 300.0 mg/kg/injection, schedule: Q01DX001 (ip), vehicle: carboxymethylcellulose (CMC) 111 % of control

O=c1ccn(C2OC(CO)C(O)C2O)c(=O)[n]1[Hg][c]1ccccc1 (stereo not drawn)
inactive: endpoint: median survival time, dose: 0.79 mg/kg/injection, schedule: Q01DX005 (ip), vehicle: saline 116 % of control and 111 % of control | endpoint: median survival time, dose: 1.56 mg/kg/injection, schedule: Q01DX005 (ip), vehicle: saline 100 % of control | endpoint: median survival time, dose: 3.12 mg/kg/injection, schedule: Q01DX005 (ip), vehicle: saline 100 % of control and 101 % of control and 103 % of control | endpoint: median survival time, dose: 6.25 mg/kg/injection, schedule: Q01DX005 (ip), vehicle: saline 100 % of control and 101 % of control and 107 % of control | endpoint: median survival time, dose: 12.5 mg/kg/injection, schedule: Q01DX005 (ip), vehicle: saline 101 % of control

Cc1oc([N+](=O)[O-])c(C)c1C(=O)O
inactive: endpoint: mean survival time, dose: 50.0 mg/kg/injection, schedule: Q04DX002 (ip), vehicle: saline with Tween-80 101 % of control | endpoint: mean survival time, dose: 100.0 mg/kg/injection, schedule: Q04DX002 (ip), vehicle: saline with Tween-80 97 % of control | endpoint: mean survival time, dose: 200.0 mg/kg/injection, schedule: Q04DX002 (ip), vehicle: saline with Tween-80 104 % of control

O=C(CSCC(=O)c1ccccc1)c1ccccc1
inactive: endpoint: mean survival time, dose: 400.0 mg/kg/injection, schedule: Q04DX002 (ip), vehicle: Klucel (hydroxypropylcellulose) (HPC) 89 % of control

CCOC(OCC)n1ncnc1NC(=S)NCc1ccccc1
inactive: endpoint: mean survival time, dose: 12.5 mg/kg/injection, schedule: Q01DX001 (ip), vehicle: carboxymethylcellulose (CMC) 100 % of control | endpoint: mean survival time, dose: 25.0 mg/kg/injection, schedule: Q01DX001 (ip), vehicle: carboxymethylcellulose (CMC) 95 % of control | endpoint: mean survival time, dose: 50.0 mg/kg/injection, schedule: Q01DX001 (ip), vehicle: carboxymethylcellulose (CMC) 93 % of control | endpoint: mean survival time, dose: 100.0 mg/kg/injection, schedule: Q01DX001 (ip), vehicle: carboxymethylcellulose (CMC) 108 % of control | endpoint: mean survival time, dose: 200.0 mg/kg/injection, schedule: Q01DX001 (ip), vehicle: carboxymethylcellulose (CMC) 91 % of control

COc1ccc(NC(=O)C(Cl)Cl)ccc1=O
inactive: [6] 96 % of control | [1] 97 % of control | endpoint: mean survival time, dose: 200.0 mg/kg/injection, schedule: Q01DX009 (ip), vehicle: saline with Tween-80 95 % of control | [2] 92 % of control | [3] 98 % of control

O=C(O)CC(NCc1ccccc1)C(=O)O (stereo not drawn)
inactive: [1] 103 % of control | [2] 100 % of control | [3] 97 % of control
